According to ChEMBL document CHEMBL4043115, “1,3-Oxazole-based selective picomolar inhibitors of cytosolic human carbonic anhydrase II alleviate ocular hypertension in rabbits: Potency is supported by X-ray crystallography of two leads” (Bioorg Med Chem, 2017):
The source made the active and inactive calls. The rule behind the calls is not given here.

Key:
Format in all cases: functional
Oryctolagus cuniculus [1] = assay: Ocular hypotensive activity in New Zealand albino rabbit eye assessed as reduction in hypertonic saline-induced intraocular pressure at 1% administered as eye drop measured at 60 mins post administration by applanation tonometry
Oryctolagus cuniculus [2] = assay: Ocular hypotensive activity in New Zealand albino rabbit eye assessed as reduction in hypertonic saline-induced intraocular pressure at 1% administered as eye drop measured at 4 hrs post administration by applanation tonometry
Oryctolagus cuniculus [3] = assay: Ocular hypotensive activity in New Zealand albino rabbit eye assessed as reduction in hypertonic saline-induced intraocular pressure at 2% administered as eye drop measured at 60 mins post administration by applanation tonometry

| SMILES | Activity (Oryctolagus cuniculus [1]) | Activity (Oryctolagus cuniculus [2]) | Activity (Oryctolagus cuniculus [3]) |
| --- | --- | --- | --- |
| NS(=O)(=O)c1ccc(-c2cnc(C(=O)N3CCOCC3)o2)s1 | Active | Active |  |
| CCN[C@H]1C[C@H](C)S(=O)(=O)c2sc(S(N)(=O)=O)cc21 |  |  | Active |
| Cc1ncc(-c2ccc(S(N)(=O)=O)cc2)o1 | Active | Active |  |
